Measured values as given in ChEMBL document CHEMBL4680347, “Discovery of novel 1,3,5-triazine derivatives as potent inhibitor of cervical cancer via dual inhibition of PI3K/mTOR” (Bioorg Med Chem, 2021).
One block for each compound: values may come before it. Active and inactive are the calls of the source. The calls are words filed in the database; no cut-off is given here.

What was measured:
[1] = biological target: Phosphatidylinositol 4,5-bisphosphate 3-kinase catalytic subunit alpha isoform (Homo sapiens, UniProt P42336); experiment: Inhibition of PI3Kalpha (unknown origin) measured after 1 hr by ADP-glo plus luminescence assay
[2] = biological target: Serine/threonine-protein kinase mTOR (Homo sapiens, UniProt P42345); experiment: Inhibition of mTOR (unknown origin) measured after 45 mins by LANCE Ultra assay
[3] = test system: MDA-MB-231; experiment: Anticancer activity against human […] cells assessed as inhibition of cell proliferation measured after 48 hrs by MTT assay; type: functional, cell-based; conditions: MDA-MB-231, 48 h
[4] = biological target: Phosphatidylinositol 4,5-bisphosphate 3-kinase catalytic subunit beta isoform (Homo sapiens, UniProt P42338); experiment: Inhibition of PI3Kbeta (unknown origin) measured after 1 hr by ADP-glo plus luminescence assay
[5] = biological target: Phosphatidylinositol 4,5-bisphosphate 3-kinase catalytic subunit gamma isoform (Homo sapiens, UniProt P48736); experiment: Inhibition of PI3Kgamma (unknown origin) measured after 1 hr by ADP-glo plus luminescence assay
[6] = biological target: T1, Phosphatidylinositol 4,5-bisphosphate 3-kinase catalytic subunit delta isoform (Homo sapiens, UniProt O00329); experiment: Inhibition of PI3Kdelta (unknown origin) measured after 1 hr by ADP-glo plus luminescence assay
T1 sequence (O00329 whole entry): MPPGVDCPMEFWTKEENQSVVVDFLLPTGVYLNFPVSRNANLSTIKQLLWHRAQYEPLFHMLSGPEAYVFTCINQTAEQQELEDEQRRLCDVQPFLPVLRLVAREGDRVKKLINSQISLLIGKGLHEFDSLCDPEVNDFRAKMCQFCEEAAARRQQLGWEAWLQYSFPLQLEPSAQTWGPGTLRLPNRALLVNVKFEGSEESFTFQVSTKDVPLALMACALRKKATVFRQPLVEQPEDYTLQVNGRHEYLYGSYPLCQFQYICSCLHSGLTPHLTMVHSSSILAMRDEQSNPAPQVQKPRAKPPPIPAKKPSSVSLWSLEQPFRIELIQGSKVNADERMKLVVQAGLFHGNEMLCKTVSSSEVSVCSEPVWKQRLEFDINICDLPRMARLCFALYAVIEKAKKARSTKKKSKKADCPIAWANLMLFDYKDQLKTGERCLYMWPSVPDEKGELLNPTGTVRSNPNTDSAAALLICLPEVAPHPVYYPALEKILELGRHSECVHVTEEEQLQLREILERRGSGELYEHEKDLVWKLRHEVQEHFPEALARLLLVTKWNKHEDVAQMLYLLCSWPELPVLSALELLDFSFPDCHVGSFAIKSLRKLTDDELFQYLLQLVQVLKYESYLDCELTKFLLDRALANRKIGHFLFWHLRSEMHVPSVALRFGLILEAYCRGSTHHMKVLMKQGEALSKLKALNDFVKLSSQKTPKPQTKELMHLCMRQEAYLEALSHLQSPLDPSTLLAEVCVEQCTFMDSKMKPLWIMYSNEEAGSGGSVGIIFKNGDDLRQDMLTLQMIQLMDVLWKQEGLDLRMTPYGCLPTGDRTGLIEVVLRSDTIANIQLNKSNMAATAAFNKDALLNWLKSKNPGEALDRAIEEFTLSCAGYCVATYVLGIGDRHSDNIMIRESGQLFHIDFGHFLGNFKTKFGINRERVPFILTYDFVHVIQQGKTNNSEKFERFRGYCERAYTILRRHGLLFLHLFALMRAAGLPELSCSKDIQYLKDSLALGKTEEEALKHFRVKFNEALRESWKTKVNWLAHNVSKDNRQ

[7] = test system: MCF7; experiment: Anticancer activity against human MCF-7 cells assessed as inhibition of cell proliferation measured after 48 hrs by MTT assay; type: functional, cell-based; conditions: MCF7, 48 h
[8] = test system: HeLa; experiment: Anticancer activity against human HeLa cells assessed as inhibition of cell proliferation measured after 48 hrs by MTT assay; type: functional, cell-based
[9] = test system: HepG2; experiment: Anticancer activity against human HepG2 cells assessed as inhibition of cell proliferation measured after 48 hrs by MTT assay; type: functional, cell-based; conditions: HepG2, 48 h
[10] = test system: HeLa; experiment: Antiproliferative activity against human HeLa cells assessed as reduction in cell viability measured upto 12 uM by MTT assay; type: functional, cell-based; conditions: dose microM <=12, time 24-72 hrs, TDE = time-dependent effect
[11] = test system: HeLa; experiment: Antiproliferative activity against human HeLa cells assessed as reduction in cell viability incubated for 24 to 72 hr by MTT assay; type: functional, cell-based; conditions: dose microM <=12, time 24-72 hrs
[12] = test system: HeLa; experiment: Inhibition of colony formation in human HeLa cells measured after 24 hrs by crystal violet staining based colony formation assay; type: functional, cell-based; conditions: dose 4-12 µM
[13] = test system: HeLa; experiment: Induction of cell cycle arrest in human HeLa cells assessed as accumulation at G1 phase at 4 uM after 24 hrs by RNase A/PI-staining based flow cytometric analysis (reference value: 52.21%); type: functional
[14] = test system: HeLa; experiment: Induction of cell cycle arrest in human HeLa cells assessed as accumulation at G2 phase at 4 uM after 24 hrs by RNase A/PI-staining based flow cytometric analysis (reference value: 30.62%); type: functional
[15] = test system: HeLa; experiment: Induction of cell cycle arrest in human HeLa cells assessed as accumulation at S phase at 4 uM after 24 hrs by RNase A/PI-staining based flow cytometric analysis (reference value: 17.17%); type: functional
[16] = test system: HeLa; experiment: Induction of cell cycle arrest in human HeLa cells assessed as accumulation at G1 phase at 8 uM after 24 hrs by RNase A/PI-staining based flow cytometric analysis (reference value: 52.21%); type: functional
[17] = test system: HeLa; experiment: Induction of cell cycle arrest in human HeLa cells assessed as accumulation at G2 phase at 8 uM after 24 hrs by RNase A/PI-staining based flow cytometric analysis (reference value: 30.62%); type: functional
[18] = test system: HeLa; experiment: Induction of cell cycle arrest in human HeLa cells assessed as accumulation at S phase at 8 uM after 24 hrs by RNase A/PI-staining based flow cytometric analysis (reference value: 17.17%); type: functional
[19] = test system: HeLa; experiment: Induction of cell cycle arrest in human HeLa cells assessed as accumulation at G1 phase at 12 uM after 24 hrs by RNase A/PI-staining based flow cytometric analysis (reference value: 52.21%); type: functional
[20] = test system: HeLa; experiment: Induction of cell cycle arrest in human HeLa cells assessed as accumulation at G2 phase at 12 uM after 24 hrs by RNase A/PI-staining based flow cytometric analysis (reference value: 30.62%); type: functional
[21] = test system: HeLa; experiment: Induction of cell cycle arrest in human HeLa cells assessed as accumulation at S phase at 12 uM after 24 hrs by RNase A/PI-staining based flow cytometric analysis (reference value: 17.17%); type: functional
[22] = test system: HeLa; experiment: Inhibition of cell migration in human HeLa cells incubated for 72 hrs by wound healing assay; type: functional, cell-based; conditions: dose 4-12 µM
[23] = test system: HeLa; experiment: Inhibition of cell invasion in human HeLa cells incubated for 24 hrs by crystal violet staining based transwell assay; type: functional; conditions: dose 4-12 µM
[24] = test system: HeLa; experiment: Induction of apoptosis in human HeLa cells at 4 to 12 uM incubated for 48 hrs by Hoechst 33342 staining based fluorescence microscopy; type: functional, cell-based; conditions: dose 4-12 µM
[25] = test system: HeLa; experiment: Induction of apoptosis in human HeLa cells assessed as early apoptotic cells at 4 uM measured after 24 hrs by Annexin-V/FITC and propidium iodide staining based flow cytometry (reference value: 1.60%); type: functional
[26] = test system: HeLa; experiment: Induction of apoptosis in human HeLa cells assessed as late apoptotic cells at 4 uM measured after 24 hrs by Annexin-V/FITC and propidium iodide staining based flow cytometry (reference value: 3.4%); type: functional
[27] = test system: HeLa; experiment: Induction of apoptosis in human HeLa cells assessed as early apoptotic cells at 8 uM measured after 24 hrs by Annexin-V/FITC and propidium iodide staining based flow cytometry (reference value: 1.60%); type: functional
[28] = test system: HeLa; experiment: Induction of apoptosis in human HeLa cells assessed as late apoptotic cells at 8 uM measured after 24 hrs by Annexin-V/FITC and propidium iodide staining based flow cytometry (reference value: 3.4%); type: functional
[29] = test system: HeLa; experiment: Induction of apoptosis in human HeLa cells assessed as early apoptotic cells at 12 uM measured after 24 hrs by Annexin-V/FITC and propidium iodide staining based flow cytometry (reference value: 1.60%); type: functional
[30] = test system: HeLa; experiment: Induction of apoptosis in human HeLa cells assessed as late apoptotic cells at 12 uM measured after 24 hrs by Annexin-V/FITC and propidium iodide staining based flow cytometry (reference value: 3.4%); type: functional
[31] = test system: HeLa; experiment: Induction of apoptosis in human HeLa cells assessed as reduction in BAX level upto 12 uM by Western blot analysis; type: functional, cell-based; conditions: dose microM <=12
[32] = test system: HeLa; experiment: Induction of apoptosis in human HeLa cells assessed as increase in Bcl-2 level upto 12 uM by Western blot analysis; type: functional, cell-based; conditions: dose microM <=12
[33] = test system: HeLa; experiment: Inhibition of PI3K/AKT pathway in human HeLa cells assessed as reduction phosphorylated PI3K level upto 12 uM by Western blot analysis; type: cell-based; conditions: dose microM <=12
[34] = test system: HeLa; experiment: Antitumor activity against human HeLa cells xenografted in orally dosed BALB/c mouse assessed as reduction in tumor volume measured for 24 days; type: functional, organism-based; conditions: dose 5-15 mg/kg, time 24.0 day
[35] = test system: HeLa; experiment: Antitumor activity against human HeLa cells xenografted in orally dosed BALB/c mouse assessed as reduction in tumor weight measured for 24 days; type: functional, organism-based; conditions: dose 5-15 mg/kg, time 24.0 day
[36] = test system: HeLa; experiment: Inhibition of PI3K/AKT pathway in human HeLa cells assessed as reduction phosphorylated Akt level upto 12 uM by Western blot analysis; type: cell-based; conditions: dose microM <=12
[37] = test system: Mus musculus; experiment: Reduction in p-PI3K levels in BALB/c mouse tumor xenografted with human HeLa cells at 5 to 15 mg/kg, po by Western blot analysis; type: functional, organism-based; conditions: Neoplasm, dose 5-15 mg/kg
[38] = test system: Mus musculus; experiment: Reduction in p-AKT levels in BALB/c mouse tumor xenografted with human HeLa cells at 5 to 15 mg/kg, po by Western blot analysis; type: functional, organism-based; conditions: Neoplasm, dose 5-15 mg/kg
[39] = test system: Mus musculus; experiment: Reduction in p-mTOR levels in BALB/c mouse tumor xenografted with human HeLa cells at 5 to 15 mg/kg, po by Western blot analysis; type: functional, organism-based; conditions: Neoplasm, dose 5-15 mg/kg

Phosphatidylinositol 4,5-bisphosphate 3-kinase catalytic subunit alpha isoform, sequence (P42336 whole entry, canonical isoform): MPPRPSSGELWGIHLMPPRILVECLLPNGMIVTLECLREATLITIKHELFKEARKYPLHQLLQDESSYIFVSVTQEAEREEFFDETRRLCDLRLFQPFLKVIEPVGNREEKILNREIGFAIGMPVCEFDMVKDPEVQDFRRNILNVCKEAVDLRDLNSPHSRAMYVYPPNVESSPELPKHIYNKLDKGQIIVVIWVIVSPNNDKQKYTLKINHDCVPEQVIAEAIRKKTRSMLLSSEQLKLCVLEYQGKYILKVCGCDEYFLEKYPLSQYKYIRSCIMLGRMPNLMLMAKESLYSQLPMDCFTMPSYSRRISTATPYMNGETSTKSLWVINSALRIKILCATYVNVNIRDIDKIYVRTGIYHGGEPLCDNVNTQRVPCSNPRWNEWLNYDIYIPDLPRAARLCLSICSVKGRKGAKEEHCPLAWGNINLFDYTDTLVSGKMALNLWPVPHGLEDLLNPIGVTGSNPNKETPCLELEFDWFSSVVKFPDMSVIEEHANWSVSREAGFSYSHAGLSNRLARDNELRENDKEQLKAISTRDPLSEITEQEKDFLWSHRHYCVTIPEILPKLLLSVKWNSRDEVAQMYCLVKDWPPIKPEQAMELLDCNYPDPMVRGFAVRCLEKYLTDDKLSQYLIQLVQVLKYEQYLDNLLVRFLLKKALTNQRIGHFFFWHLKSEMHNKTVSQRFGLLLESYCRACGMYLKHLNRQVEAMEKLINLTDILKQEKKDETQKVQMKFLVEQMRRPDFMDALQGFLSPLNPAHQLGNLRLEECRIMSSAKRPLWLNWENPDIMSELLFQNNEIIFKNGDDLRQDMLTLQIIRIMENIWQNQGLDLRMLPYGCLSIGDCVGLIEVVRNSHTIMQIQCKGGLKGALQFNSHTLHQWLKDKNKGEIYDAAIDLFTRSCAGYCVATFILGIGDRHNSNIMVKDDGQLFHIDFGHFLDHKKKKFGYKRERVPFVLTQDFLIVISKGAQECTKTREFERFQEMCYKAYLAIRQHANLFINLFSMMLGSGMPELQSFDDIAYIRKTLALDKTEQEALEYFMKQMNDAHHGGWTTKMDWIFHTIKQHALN
Phosphatidylinositol 4,5-bisphosphate 3-kinase catalytic subunit beta isoform, sequence (P42338 whole entry, canonical isoform): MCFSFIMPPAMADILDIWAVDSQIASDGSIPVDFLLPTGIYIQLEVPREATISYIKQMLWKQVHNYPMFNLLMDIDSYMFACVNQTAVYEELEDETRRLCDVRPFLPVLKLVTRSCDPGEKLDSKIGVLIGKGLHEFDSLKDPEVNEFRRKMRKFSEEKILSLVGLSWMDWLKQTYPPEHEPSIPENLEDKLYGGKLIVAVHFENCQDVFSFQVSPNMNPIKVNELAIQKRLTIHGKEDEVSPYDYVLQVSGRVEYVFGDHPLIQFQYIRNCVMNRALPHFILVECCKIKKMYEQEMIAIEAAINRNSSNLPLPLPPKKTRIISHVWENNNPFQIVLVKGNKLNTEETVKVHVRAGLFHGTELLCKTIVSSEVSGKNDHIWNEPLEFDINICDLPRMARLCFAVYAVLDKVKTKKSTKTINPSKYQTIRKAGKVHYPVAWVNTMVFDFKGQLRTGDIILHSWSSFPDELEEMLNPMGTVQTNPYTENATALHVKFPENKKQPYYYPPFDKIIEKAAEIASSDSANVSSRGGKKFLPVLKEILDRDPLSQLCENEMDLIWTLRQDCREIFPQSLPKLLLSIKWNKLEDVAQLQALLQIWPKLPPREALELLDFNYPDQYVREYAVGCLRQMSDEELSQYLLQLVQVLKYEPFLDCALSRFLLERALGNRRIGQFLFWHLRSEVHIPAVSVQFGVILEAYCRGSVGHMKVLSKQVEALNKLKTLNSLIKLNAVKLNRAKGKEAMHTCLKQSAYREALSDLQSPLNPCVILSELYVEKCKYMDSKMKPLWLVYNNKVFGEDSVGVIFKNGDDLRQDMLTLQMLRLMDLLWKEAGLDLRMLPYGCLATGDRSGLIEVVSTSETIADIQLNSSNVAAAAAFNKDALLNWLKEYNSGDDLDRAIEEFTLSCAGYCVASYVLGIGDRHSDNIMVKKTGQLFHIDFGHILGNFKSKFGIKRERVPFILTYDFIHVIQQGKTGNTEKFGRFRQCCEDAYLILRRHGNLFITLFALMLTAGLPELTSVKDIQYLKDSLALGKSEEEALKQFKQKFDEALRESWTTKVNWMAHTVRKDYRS
Phosphatidylinositol 4,5-bisphosphate 3-kinase catalytic subunit gamma isoform, sequence (P48736 whole entry, canonical isoform): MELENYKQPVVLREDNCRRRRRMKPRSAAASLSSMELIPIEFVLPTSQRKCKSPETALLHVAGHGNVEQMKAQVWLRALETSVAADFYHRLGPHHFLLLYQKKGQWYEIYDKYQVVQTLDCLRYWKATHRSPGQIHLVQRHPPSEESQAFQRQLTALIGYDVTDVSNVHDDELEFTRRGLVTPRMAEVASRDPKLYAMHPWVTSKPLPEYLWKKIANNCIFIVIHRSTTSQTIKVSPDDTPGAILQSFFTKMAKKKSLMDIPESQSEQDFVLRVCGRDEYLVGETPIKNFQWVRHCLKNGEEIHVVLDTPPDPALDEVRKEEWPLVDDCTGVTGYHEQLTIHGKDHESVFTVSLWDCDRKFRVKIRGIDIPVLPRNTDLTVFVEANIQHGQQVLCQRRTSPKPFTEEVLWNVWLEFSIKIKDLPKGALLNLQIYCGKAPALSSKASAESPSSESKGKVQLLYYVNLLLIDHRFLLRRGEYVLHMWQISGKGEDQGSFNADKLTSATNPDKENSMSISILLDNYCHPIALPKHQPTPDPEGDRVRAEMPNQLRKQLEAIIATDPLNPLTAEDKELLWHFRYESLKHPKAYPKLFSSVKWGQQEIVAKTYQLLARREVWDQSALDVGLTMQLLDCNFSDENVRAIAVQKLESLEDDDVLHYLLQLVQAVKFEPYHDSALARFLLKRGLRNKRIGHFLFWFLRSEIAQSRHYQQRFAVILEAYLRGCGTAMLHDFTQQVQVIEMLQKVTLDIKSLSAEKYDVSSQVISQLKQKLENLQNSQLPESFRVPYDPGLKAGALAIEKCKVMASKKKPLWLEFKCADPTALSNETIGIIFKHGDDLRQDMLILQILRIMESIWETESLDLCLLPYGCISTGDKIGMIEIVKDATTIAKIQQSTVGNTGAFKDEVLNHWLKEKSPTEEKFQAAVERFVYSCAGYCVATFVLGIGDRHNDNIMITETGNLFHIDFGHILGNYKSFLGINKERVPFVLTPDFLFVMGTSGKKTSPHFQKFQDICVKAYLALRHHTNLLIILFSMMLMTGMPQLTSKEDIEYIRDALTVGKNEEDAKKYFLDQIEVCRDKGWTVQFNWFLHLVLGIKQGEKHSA

SMILES: COc1ccccc1S(=O)(=O)N1CCN(c2nc(NCCN3CCOCC3)nc(N3CCOCC3)n2)CC1
- IC50 [1]: 39.7 nM
- IC50 [2]: 25.5 nM

SMILES: Cc1ccc(S(=O)(=O)N2CCN(c3nc(NCCN4CCOCC4)nc(N4CCOCC4)n3)CC2)cc1
- IC50 [1]: 6.03 nM
- IC50 [2]: 12.8 nM

SMILES: O=[N+]([O-])c1ccccc1S(=O)(=O)N1CCN(c2nc(NCCN3CCOCC3)nc(N3CCOCC3)n2)CC1
- IC50 [1]: 42.2 nM
- IC50 [2]: 66.3 nM

SMILES: O=S(=O)(c1ccc(O)cc1)N1CCN(c2nc(NCCN3CCOCC3)nc(N3CCOCC3)n2)CC1
- IC50 [3]: 15800 nM
- IC50 [1]: 3.41 nM
- IC50 [2]: 8.45 nM
- IC50 [4]: 12.3 nM
- IC50 [5]: 24.6 nM
- IC50 [6]: 35.3 nM
- IC50 [7]: 16300 nM
- IC50 [8]: 2210 nM
- IC50 [9]: 12200 nM
- Activity [10]: Tde
- Activity [11]: Dose-dependent effect
- Activity [12]: Dose-dependent effect
- Activity [13]: 59.18%
- Activity [14]: 20.38%
- Activity [15]: 20.44%
- Activity [16]: 20.38%
- Activity [17]: 15.43%
- Activity [18]: 19.52%
- Activity [19]: 75.03%
- Activity [20]: 14.32%
- Activity [21]: 10.65%
- Activity [22]: Dose-dependent effect
- Activity [23]: Dose-dependent effect
- Activity [24]: Active
- Activity [25]: 2.71%
- Activity [26]: 5.07%
- Activity [27]: 1.84%
- Activity [28]: 16.94%
- Activity [29]: 2.1%
- Activity [30]: 17.98%
- Activity [31]: Active
- Activity [32]: Active
- inhibition [33]: Dose-dependent effect
- Activity [34]: Dose-dependent effect
- Activity [35]: Dose-dependent effect
- inhibition [36]: Active
- inhibition [37]: Active
- inhibition [38]: Active
- inhibition [39]: Active

Now from value to compound:

- IC50 [1]: 32 nM
- IC50 [2]: 32.3 nM
SMILES: Cc1ccccc1S(=O)(=O)N1CCN(c2nc(NCCN3CCOCC3)nc(N3CCOCC3)n2)CC1

- IC50 [1]: 55.4 nM
- IC50 [2]: 35.3 nM
SMILES: O=S(=O)(c1ccccc1Cl)N1CCN(c2nc(NCCN3CCOCC3)nc(N3CCOCC3)n2)CC1

- IC50 [1]: 21.3 nM
- IC50 [2]: 32.5 nM
SMILES: O=S(=O)(c1ccccc1O)N1CCN(c2nc(NCCN3CCOCC3)nc(N3CCOCC3)n2)CC1

- IC50 [1]: 15.6 nM
- IC50 [2]: 21.8 nM
SMILES: O=S(=O)(c1cccc(O)c1)N1CCN(c2nc(NCCN3CCOCC3)nc(N3CCOCC3)n2)CC1

- IC50 [1]: 37.5 nM
SMILES: O=S(=O)(c1cccc(Cl)c1)N1CCN(c2nc(NCCN3CCOCC3)nc(N3CCOCC3)n2)CC1

- IC50 [1]: 40.6 nM
- IC50 [2]: 70.4 nM
SMILES: O=S(=O)(c1ccccc1)N1CCN(c2nc(NCCN3CCOCC3)nc(N3CCOCC3)n2)CC1
